Data on 18 compounds can be found in ChEMBL document CHEMBL2434930, “Design, synthesis and biological evaluation of novel anti-cytokine 1,2,4-triazine derivatives” (Bioorg Med Chem, 2013).

Data set [1] relates to PBMC. In words: Antiinflammatory activity in human PBMC assessed as inhibition of LPS-induced IL1-beta production at 10 uM treated 30 mins before LPS challenge measured after 6 hrs by ELISA. Format: functional. On the technique in general: ELISA stands for enzyme-linked immunosorbent assay.
In the next data set the test system is MCF7. In words: Cytotoxicity against human MCF7 cells assessed as cell viability at 10 to 20 uM by MTT assay. Format: cell-based. As to conditions: mcf7, 20 µM. Background: Tetrazolium dyes change colour on reduction, which living cells bring about.
Data set [2] has as its system PBMC. The experiment in a line: Antiinflammatory activity in human PBMC assessed as inhibition of LPS-induced TNFalpha production at 10 uM treated 30 mins before LPS challenge measured after 6 hrs by ELISA. The class given is functional.
Data set [3] relates to PBMC. In words: Cytotoxicity against human PBMC assessed as cell viability at 10 to 20 uM by MTT assay. The class given is cell-based.
For data set [4], the target named is T1, MAP kinase p38 (Homo sapiens) (UniProt O15264+Q15759+Q16539+P53778). In words: Inhibition of etoposide-induced p38 MAPK activation in human MCF7 cells at 20 uM treated 30 mins before etoposide challenge measured after 3 hrs by Western blot analysis. The class given is cell-based.
The target in data set [5] is T1, MAP kinase p38 (Homo sapiens). The experiment in a line: Inhibition of etoposide-induced p38 MAPK activation in human MCF7 cells assessed as phosphorylated ATF-2 level at 20 uM treated 30 mins before etoposide challenge measured after 3 hrs by Western blot analysis. Format: cell-based. (In general: A western blot detects proteins with antibodies after separation by electrophoresis.)

For data set [6], the system named is Rattus norvegicus. In words: Antiinflammatory activity in rat assessed as inhibition of carrageenan-induced paw edema at 10 mg/kg, ip administered 1 hr before carrageenan challenge measured at 4 hrs relative to control. As to conditions: route intraperitoneal. The class given is functional.
Data set [7] relates to Rattus norvegicus. The experiment in a line: Antiinflammatory activity in rat assessed as inhibition of carrageenan-induced paw edema at 10 mg/kg, ip administered 1 hr before carrageenan challenge measured at 2 hrs relative to control. The class given is functional. The conditions noted are these: route intraperitoneal.
Data set [8] has as its system Rattus norvegicus. The experiment in a line: Antiinflammatory activity in rat assessed as inhibition of carrageenan-induced paw edema at 10 mg/kg, ip administered 1 hr before carrageenan challenge measured at 1 hr relative to control. The class given is functional. As to conditions: route intraperitoneal.
In data set [9] the test system is Rattus norvegicus. The experiment in a line: Antiinflammatory activity in rat assessed as inhibition of carrageenan-induced paw edema at 10 mg/kg, ip administered 1 hr before carrageenan challenge measured at 3 hrs relative to control. Format: functional. As to conditions: route intraperitoneal.
Data set [10] concerns Rattus norvegicus. The experiment in a line: Antiinflammatory activity in rat assessed as inhibition of carrageenan-induced paw edema at 50 mg/kg, ip administered 1 hr before carrageenan challenge measured at 1 hr relative to control. The class given is functional. The conditions noted are these: route intraperitoneal.
Data set [11] deals with Rattus norvegicus. In words: Antiinflammatory activity in rat assessed as inhibition of carrageenan-induced paw edema at 50 mg/kg, ip administered 1 hr before carrageenan challenge measured at 4 hrs relative to control. As to conditions: route intraperitoneal. The class given is functional.
In data set [12] the test system is Rattus norvegicus. The experiment in a line: Antiinflammatory activity in rat assessed as inhibition of carrageenan-induced paw edema at 50 mg/kg, ip administered 1 hr before carrageenan challenge measured at 2 hrs relative to control. The class given is functional. The conditions noted are these: route intraperitoneal.
The test system of data set [13] is Rattus norvegicus. In words: Antiinflammatory activity in rat assessed as inhibition of carrageenan-induced paw edema at 50 mg/kg, ip administered 1 hr before carrageenan challenge measured at 3 hrs relative to control. The class given is functional. As to conditions: route intraperitoneal.

Activity calls are given as the source filed them. The calls are words filed in the database; no cut-off is given here.

For the compound `COc1ccc(-c2nnc(N/N=C/c3cccc(O)c3O)nc2-c2ccc(OC)cc2)cc1`, the inhibition at 10 µM with PBMC [1] is 78.2%; in the data set on PBMC [2], 46.7%. The Activity result with MCF7 and in the data set on PBMC [3] was “Non-toxic” in each case.

Regarding `COc1ccc(-c2nnc(N/N=C/c3ccc4c(c3)OCO4)nc2-c2ccc(OC)cc2)cc1`, the inhibition at 10 µM in the data set on PBMC [1] stood at 86.9%; in the data set with PBMC [2], 52.2%. Further, the Activity entry in the data set on MCF7 and with PBMC [3] was “Non-toxic” each time.

For the compound `COc1ccc(-c2nnc(N/N=C/c3ccc(Cl)cc3Cl)nc2-c2ccc(OC)cc2)cc1`, the inhibition at 10 µM worked out at 86.9% in the data set with PBMC [1] and 70% with PBMC [2]. Besides, the Activity entry in the data set with MCF7 and with PBMC [3] was “Non-toxic” throughout.

Turning to `COc1ccc(-c2nnc(N/N=C/c3ccco3)nc2-c2ccc(OC)cc2)cc1`, the inhibition at 10 µM in the data set on PBMC [1] worked out at 84%; in the data set with PBMC [2], 71.1%. In addition, the Activity entry in the data set with MCF7 and in the data set with PBMC [3] was “Non-toxic” each time.

As to `COc1ccc(-c2nnc(N/N=C/c3ccc(OC)c(OC)c3)nc2-c2ccc(OC)cc2)cc1`, the inhibition at 10 µM in the data set with PBMC [1] was 39.9%; in the data set on PBMC [2], 45%. In addition, the Activity entry with MCF7 and in the data set on PBMC [3] was “Non-toxic” throughout.

On to `COc1ccc(-c2nnc(N/N=C/c3ccc(F)cc3)nc2-c2ccc(OC)cc2)cc1`, for which the inhibition at 10 µM in the data set with PBMC [1] was 27.9%; in the data set on PBMC [2] it was 34.5%. Also, the Activity result in the data set with MCF7 and in the data set with PBMC [3] was “Non-toxic” each time.

Turning to `COc1ccc(-c2nnc(N/N=C/c3c(Cl)cccc3[N+](=O)[O-])nc2-c2ccc(OC)cc2)cc1`, the inhibition at 10 µM turned out to be 2.81% with PBMC [1] and 47.9% in the data set with PBMC [2]. Further, the Activity entry in the data set on MCF7 and in the data set on PBMC [3] was “Non-toxic” throughout.

Consider `COc1ccc(-c2nnc(N/N=C/c3ccc([N+](=O)[O-])cc3)nc2-c2ccc(OC)cc2)cc1`, for which the inhibition at 10 µM is 15.5% in the data set with PBMC [1] and 37.6% in the data set on PBMC [2]. Moreover, the Activity entry in the data set with MCF7 and in the data set with PBMC [3] was “Non-toxic” each time.

`COc1ccc(-c2nnc(N/N=C/c3ccc(O)cc3O)nc2-c2ccc(OC)cc2)cc1`: the figures for the inhibition at 10 µM in the data set with PBMC [1] and in the data set with PBMC [2] were 51.8% and 32.7%, respectively. Moreover, the Activity result with MCF7 and with PBMC [3] was “Non-toxic” in each case.

For `COc1ccc(-c2nnc(N/N=C/c3cccs3)nc2-c2ccc(OC)cc2)cc1`, the inhibition at 10 µM worked out at 81.8% in the data set with PBMC [1] and 57.5% in the data set with PBMC [2]. Moreover, the Activity entry in the data set with MCF7 and in the data set with PBMC [3] was “Non-toxic” throughout.

With `COc1ccc(-c2nnc(N/N=C/c3cccc(OC)c3OC)nc2-c2ccc(OC)cc2)cc1`, the inhibition at 10 µM amounted to 89.8% in the data set with PBMC [1] and 71.8% with PBMC [2]. The inhibition entry in [4] was “inactive”. Also, in data set [5], the inhibition result is “Active”. Also, the inhibition in vivo at 10 mg/kg was found to be 75.6% in the data set on Rattus norvegicus [6], 45.3% in the data set with Rattus norvegicus [7], 38.8% with Rattus norvegicus [8] and 64.2% with Rattus norvegicus [9]. In addition, the Activity entry with MCF7 and with PBMC [3] was “Non-toxic” each time.

With `COc1ccc2c(c1)c(CC(=O)O)c(C)n2C(=O)c1ccc(Cl)cc1` [INDOMETHACIN], the inhibition in vivo at 50 mg/kg was 19.2% with Rattus norvegicus [10], 68.2% in the data set on Rattus norvegicus [11], 28.4% in the data set with Rattus norvegicus [12] and 48.2% in the data set with Rattus norvegicus [13].

Turning to `COc1ccc(/C=N/Nc2nnc(-c3ccc(OC)cc3)c(-c3ccc(OC)cc3)n2)cc1`, the inhibition at 10 µM in the data set on PBMC [1] was 35.9%; in the data set on PBMC [2] it was 48.5%. The Activity result in the data set with MCF7 and in the data set with PBMC [3] was “Non-toxic” in each case.

With `Oc1ccc(-c2nc(-c3ccc(F)cc3)c(-c3ccncc3)[nH]2)cc1` [SB-202190], the inhibition at 10 µM in the data set with PBMC [1] amounted to 93.4%; with PBMC [2] it was 87.2%.

As for `COc1ccc(-c2nnc(N/N=C/c3cc4ccccc4[nH]3)nc2-c2ccc(OC)cc2)cc1`, the inhibition at 10 µM was determined as 82.3% in the data set on PBMC [1] and 53.3% in the data set on PBMC [2]. Moreover, the Activity entry with MCF7 and with PBMC [3] was “Non-toxic” throughout.

Turning to `COc1ccc(-c2nnc(N/N=C/c3ccc(O)c(OC)c3)nc2-c2ccc(OC)cc2)cc1`, the results for the inhibition at 10 µM in the data set on PBMC [1] and with PBMC [2] were 84.3% and 46.1%, respectively. Moreover, the Activity result with MCF7 and in the data set with PBMC [3] was “Non-toxic” throughout.

Turning to `COc1ccc(-c2nnc(N/N=C/c3ccccc3)nc2-c2ccc(OC)cc2)cc1`, the figures for the inhibition at 10 µM in the data set with PBMC [1] and in the data set with PBMC [2] were 71.5% and 53.1%, respectively. The Activity result in the data set with MCF7 and with PBMC [3] was “Non-toxic” throughout.

`COc1ccc(-c2nnc(N/N=C/c3ccncc3)nc2-c2ccc(OC)cc2)cc1`: the inhibition at 10 µM in the data set with PBMC [1] was found to be 60.8%; in the data set on PBMC [2], 41.8%. Also, the Activity result in the data set on MCF7 and in the data set with PBMC [3] was “Non-toxic” each time.

What is called inhibition is the relative decrease from the control value, in per cent. By inhibition in vivo is commonly meant the share of the control response that was lost under treatment.
